Values after ≈ are worked out from the molar mass of the structure shown. Like-named read-outs stand apart in the source and are kept apart here.
Experiments:
[1] = tested on: conditioned medium from MCF7/6 mammary carcinoma cells; experiment: Degradation in conditioned medium from MCF7/6 mammary carcinoma cells (HPLC); conditions: share of each species by HPLC; for Starting material or Metabolite, Time 0: β-Ala-Leu-Ala-Leu-DNR incubated at 37 C in MCF7/6 conditioned medium concentrated 20 of 40 times; for Starting material or Metabolite, After 1 hour / Starting material or Metabolite, After 2 hours: β-Ala-Leu-Ala-Leu-DNR incubated at 37 C in MCF7/6 conditioned medium
[2] = tested on: conditioned medium from HepG2 hepatocarcinoma cells; experiment: Degradation in conditioned medium from HepG2 hepatocarcinoma cells; conditions: β-Ala-Leu-Ala-Leu-DNR incubated at 37 C for 2 hours in HepG2 conditioned medium
[3] = tested on: conditioned medium from MCF7/6 mammary carcinoma cells
[4] = tested on: conditioned medium from HepG2 hepatocarcinoma cells
[5] = tested on: MRC5 fibroblast cells
Description: (§7) After 72 hours, the cells are incubated for 48 hours in the absence of anthracycline, and the cytotoxicity is determined by measuring the cellular proteins by Bradford's technique. […] The experimental points are adjusted to a sigmoid curve which enables the point of inflection, corresponding to the dose at which half of the cells survive (IC50), to be calculated.
(§8) After 72 hours, the cells are incubated for 48 hours in the absence of the anthracycline, and the cytotoxicity is determined by measuring the cellular proteins by Bradford's technique. […] The experimental points are adjusted to a sigmoid curve which enables the point of inflection, corresponding to the dose at which half of the cells survive (IC50), to be calculated.

[6] = tested on: MRC5 fibroblast cells; experiment: Cytotoxicity with respect to MRC5 normal cells (72 h, Bradford protein); conditions: MRC5 cells; for IC50: 72 hours with compound then 48 hours without
Description: as §7, §8

[7] = tested on: conditioned medium from HT29 colon carcinoma cells
[8] = tested on: MCF7/6 human mammary carcinoma cells; experiment: Cytotoxicity with respect to MCF7/6 tumor cells (72 h, Bradford protein); conditions: MCF7/6 cells; for IC50: 72 hours with compound then 48 hours without
Description: as §7, §8

[9] = tested on: MCF7/6 human mammary carcinoma cells
Description: (§9) After various times, the accumulation of the prodrugs and of their fluorescent metabolites were determined by HPLC after extraction of the products at basic pH according to a method developed in the laboratory. Accumulations, expressed in μg/mg of cellular proteins, were compared with those of DNR and of DOX as well as with those of L-Leu-DNR and L-Leu-DOX. The metabolites were identified by determining the retention times of reference products synthesized in the laboratory.
(§10) After various times, the accumulation of the prodrugs and of their fluorescent metabolites was determined by HPLC after extraction of the products at basic pH according to a method developed in the laboratory. Accumulations, expressed in μg/mg of cellular proteins, were compared with those of DOX and of L-Leu-DOX. The metabolites were identified by determining the retention times of reference products synthesized in the laboratory.

[10] = tested on: MCF7/6 human mammary carcinoma cells; remark: listed apart in the source
Description: as §7, §8

[11] = tested on: female NMRI mice; experiment: In vivo acute toxicity, intraperitoneal route, 5 consecutive days; design: species or system mouse; conditions: for mortality: i.p. 5 consecutive days
Description: (§1) In the in vivo study of the acute toxicity of a medicinal product, determination of the median lethal dose (lethal dose for 50% of the animals or LD50) occupies an important place. […] The LD50 is a simple test in which increasing amounts of the test product are administered intravenously (i.v.) in a single injection and intraperitoneally (i.p.) in 5 injections, one injection daily for 5 consecutive days. The mortality of the animals is monitored as a function of time. At the end of the observation period, usually 30 days, the value of the LD50 is obtained by linear regression of the percentage mortality (on a probit scale) as a function of the logarithm of the dose administered (O. K. Chan and A. W. Hayes, Principles and methods for acute toxicity and eye irritancy, in Principles and methods of toxicology, Second edition. Ed. by A. W. Hayes, Raven Press, New York, USA (1989), pp. 169-220; D. Deprez-De Campeneere and A. Trouet. DNA-Anthracycline Complexes. I. Toxicity in mice and chemotherapeutic activity against L1210 Leukaemia off Daunorubicin-DNA and Adriamycin-DNA, Eur. J. Cancer, 16 (1980), pp. 981-986; H. E. Skipper, L. H. Schmidt, A. Goldin and J. M. Venditti. A manual on quantitative drug evaluation in experimental tumor systems, Cancer Chemother. Rep. 17 (1.962), pp. 1-178).
(§2) The acute toxicity of these two drugs was studied via the i.v. and i.p. routes on a single strain of mouse. Female NMRI mice (nonconsanguineous SPF-Han, approximately 5 weeks old and of mean weight 14.6 grams, supplied by IFFA-CREDO Belgium) remained in quarantine for one week.
(§3) Injections were performed systematically in the morning (single injection into the caudal vein for the i.v. route and injections on 5 consecutive days into the peritoneum for the i.p. route), using 1.0 ml syringes and sterile 30 G (i.v.) and 27 G (i.p) needles. All handling of animals was performed with gloves, and maintenance of the animals was performed systematically every week.
(§4) DNR was injected i.v. at doses of 10, 15, 20, 25, 30 and 35 mg/kg and i.p. at doses of 2.0; 2.5; 3.0 and 3.5 mg/kg.
(§5) The concentrations of the solutions were verified by spectrophotometry.
(§6) From the day of injection (DO) onwards, the mice were monitored clinically, with a daily record of dead mice. The weight of the mice was measured almost every day. The observation period was extended beyond one month so that the signs of late toxicity could be spotted more readily. At the end of the study, the surviving mice were sacrificed, according to the standards pertaining to animal experiments (D. B. McGregor. Ethics in experiments on animals, in Experiments in toxicology, First edition. Ed. by D. Anderson and D. M. Conning. The Royal Society of Chemistry and The Universities Press. Belfast, Ireland (1988), pp. 512-522).

[12] = tested on: MCF7/6 human mammary carcinoma cells; experiment: Accumulation in MCF7/6 tumor cells (HPLC of cell extracts)
Description: as §9, §10

[13] = tested on: female NMRI mice; experiment: In vivo acute toxicity, intravenous route; design: species or system mouse; weight increase of the 3 surviving mice: dose or concentration left out as unconfirmed; conditions: i.v.; for mice dying: groups of 5
Description: as §1, §2, §3, §4, §5, §6

[14] = tested on: MRC5 fibroblast cells; experiment: Accumulation in MRC5 normal fibroblast cells (HPLC of cell extracts)
Description: At various times, the accumulation of the prodrugs and of their fluorescent metabolites was determined by HPLC after extraction of the products at basic pH according to a method developed in the laboratory. Accumulations, expressed in μg/mg of cellular proteins, were compared with those of DNR and of L-Leu-DNR. The metabolites were identified by determining the retention times of reference products synthesized in the laboratory.
as §10

[15] = tested on: female NMRI mice; experiment: In vivo acute toxicity, intravenous route; design: species or system mouse; conditions: i.v., total dose of 60 mg/kg as two injections of 30 mg/kg on two consecutive days
[16] = tested on: conditioned medium from anthracycline-resistant MCF7 cells (MCF7/ADR line); experiment: Degradation in conditioned medium from MCF7/ADR mammary carcinoma cells; format: in vitro ADME, human; conditions: 37 C, 1 hour
[17] = Degradation in human blood at 37 C
[18] = MCF7/6 cells, 6 hours of incubation, 10 μg eq. DNR/ml
[19] = MRC5 cells, 6 hours of incubation, 10 μg eq. DNR/ml

## COc1cccc2c1C(=O)c1c(O)c3c(c(O)c1C2=O)C[C@@](O)(C(C)=O)C[C@@H]3O[C@H]1C[C@H](NC(=O)[C@H](CC(C)C)NC(=O)[C@H](C)N)[C@H](O)[C@H](C)O1 [L-Ala-L-Leu-DNR]
[1]
  Starting material or Metabolite, Time 0: 0%
  Starting material or Metabolite, After 1 hour: <1%
  Starting material or Metabolite, After 2 hours: <1%
[2]
  main metabolites found, % of the total fluorescence: 8%

## COc1cccc2c1C(=O)c1c(O)c3c(c(O)c1C2=O)C[C@@](O)(C(C)=O)C[C@@H]3O[C@H]1C[C@H](NC(=O)[C@@H](N)CC(C)C)C(O)[C@H](C)O1 (stereo partly drawn) [L-Leu-DNR, N-L-leucyldaunorubicin]
[3]
  Hydrolysis, MCF-7/6 Conditioned Medium: −
  Starting material or Metabolite, After 1 hour: 83%
  Starting material or Metabolite, After 2 hours: 90%
  Starting material or Metabolite, Time 0: 0%
[4]
  main metabolites found, % of the total fluorescence: 27%
[5]
  times less cytotoxic than DNR: 172 times
[6]
  IC50: 1.78 ± 0.23 µg/mL (≈ 2.78 µM)
[7]
  main metabolites found, % of the total fluorescence: 82%
[8]
  IC50: 1.30 ± 0.56 µg/mL (≈ 2.03 µM)
[9]
  DNR found intracellularly, % of the total intracellular fluorescence: 14%
[10]
  times less cytotoxic than DNR: 14 times

## COc1cccc2c1C(=O)c1c(O)c3c(c(O)c1C2=O)C[C@@](O)(C(C)=O)C[C@@H]3O[C@H]1C[C@H](NC(=O)[C@H](CC(C)C)NC(=O)[C@H](C)NC(=O)[C@H](CC(C)C)NC(=O)CCN)[C@H](O)[C@H](C)O1 [β-Ala-Leu-Ala-Leu-DNR, β-alanyl-L-leucyl-L-alanyl-L-leucyldaunorubicin]
[11]; total dose of 60 mg/kg, groups of 5
  mortality: 2 mice die on day 22 and a third on day 35
[11]; total doses of between 10 and 45 mg/kg
  mortality: no mortality
[11]; i.p. administration on 5 consecutive days
  times less toxic than DNR (acute toxicity): at least 30 times
[11]; i.p. on 5 consecutive days, total dose
  LD50 (dose close to): ~60 mg/kg
[11]; i.p., 45 mg/kg, over the next 30 days after 7 stable days
  increase in mean weight: 20%
[11]; i.p., total dose of 60 mg/kg
  day on which surviving mice recover their initial weight: 36 days
[11]; i.p., total dose of 60 mg/kg, in 15 days
  decrease of mean weight: ~15%
[11]; i.p., total doses of between 10 and 45 mg/kg, in 40 days
  weight gain: +40%
[12]; MCF7/6 cells, 10 μg eq. DNR/ml, 24 hours of incubation
  level of accumulation (unchanged form): ~1 μg/mg of cellular proteins
[12]; [18]
  Intracellular concentration, DNR formed: 0.9 μg/mg cellular proteins
  Intracellular concentration, Leu-DNR formed: 4.5 μg/mg cellular proteins
  Intracellular concentration, Starting material: 0.3 μg/mg cellular proteins
[12]; MCF7/6 cells, after 24 hours of incubation
  DNR found intracellularly, % of the total intracellular fluorescence: approximately 40%
[12]; after 24 hours of incubation
  intracellular levels of DNR in MCF7/6 tumor line, times as high as in MRC5 fibroblasts: 12 times
[13]
  time of death after injection: ≤ 5 min
  mice dying: 2
[13]; 30 mg/kg, in 40 days
  increase of mean weight: ~40%
[13]; 120 mg/kg
  time of death after injection: ≤ 7 min
  mice dying: 5
[13]; dose of 30 mg/kg
  mortality: no mortality
[13]; in 40 days
  weight increase of the 3 surviving mice: ~30%
[14]; MRC5 cells, 10 μg eq. DNR/ml, 24 hours of incubation
  level of accumulation: ~3.3 μg/mg of cellular proteins
[14]; [19]
  Intracellular concentration, DNR formed: 0.08 μg/mg cellular proteins
  Intracellular concentration, Leu-DNR formed: 3.1 μg/mg cellular proteins
  Intracellular concentration, Starting material: 0.03 μg/mg cellular proteins
[14]; after 6 hours
  cell entry, times less than DNR: 300 times
[15]
  mortality: no mortality
[16]
  metabolite found: the only metabolite now to be found is L-Leu-DNR
[6]; 72 hours
  times less cytotoxic than DNR: 2230 times
[6]
  IC50: 23.14 ± 4.81 µg/mL (≈ 25.8 µM)
[1]
  Starting material or Metabolite, Time 0: 100%
  Starting material or Metabolite, After 1 hour: 10%
  Starting material or Metabolite, After 2 hours: 2.6%
[8]; 72 hours
  times less cytotoxic than DNR: 244 times
[8]
  IC50: 22.00 ± 7.31 µg/mL (≈ 24.6 µM)
[17]
  stability when incubated in human blood: stable

Source: patent publication US7951772B2, “Tumor-activated prodrug compounds and treatment” (La Region Wallonne, priority 1994, dated 2011)
